This data set has as its system imiquimod-induced psoriatic mice. Conditions: subcutaneous injection of CysA (3 mg/mL, 100 μL, 7 times, day 1 to day 7); psoriasis mice; HPLC; mean ± SD. The procedure: BALB/c mice were used to develop the psoriatic model. […] The back hair of the mice was shaved.
Briefly, blood (500 μL) was collected from the mice orbit and mixed with 4 mL ether. […] Mice skin, liver, and kidney samples were collected and weighed. […] In addition, the mice skin in the treatment area and the non-treated area was cryo-sectioned and stained with hematoxylin and eosin. The epidermal thickness of each skin sample was measured at three random sites with ImageJ software (V1.8.0).

For the substance cyclosporine A [CysA], the “drug accumulation in mice kidney” value is reported as 64.07 ± 10.25 (μg/g)/mg.

The record behind these values is article PMC8709454, “Enhanced Skin Delivery of Therapeutic Peptides Using Spicule-Based Topical Delivery Systems” (Pharmaceutics, 2021).
